Assay results: ChEMBL document CHEMBL2331245, “Aza-BODIPY: improved synthesis and interaction with soluble Aβ1-42 oligomers” (Bioorg Med Chem Lett, 2013)
The source made the active and inactive calls. No cut-off for these calls is given here.

What was measured:
[1] = target: Amyloid-beta precursor protein (Homo sapiens) (UniProt P05067); test: Binding affinity to unordered beta sheet of amyloid beta (1 to 42) (unknown origin) assessed as fluorescence enhancement at 0.5 uM by fluorescence spectra analysis relative to control
Sequence of Amyloid-beta precursor protein (Homo sapiens) (P05067 whole entry): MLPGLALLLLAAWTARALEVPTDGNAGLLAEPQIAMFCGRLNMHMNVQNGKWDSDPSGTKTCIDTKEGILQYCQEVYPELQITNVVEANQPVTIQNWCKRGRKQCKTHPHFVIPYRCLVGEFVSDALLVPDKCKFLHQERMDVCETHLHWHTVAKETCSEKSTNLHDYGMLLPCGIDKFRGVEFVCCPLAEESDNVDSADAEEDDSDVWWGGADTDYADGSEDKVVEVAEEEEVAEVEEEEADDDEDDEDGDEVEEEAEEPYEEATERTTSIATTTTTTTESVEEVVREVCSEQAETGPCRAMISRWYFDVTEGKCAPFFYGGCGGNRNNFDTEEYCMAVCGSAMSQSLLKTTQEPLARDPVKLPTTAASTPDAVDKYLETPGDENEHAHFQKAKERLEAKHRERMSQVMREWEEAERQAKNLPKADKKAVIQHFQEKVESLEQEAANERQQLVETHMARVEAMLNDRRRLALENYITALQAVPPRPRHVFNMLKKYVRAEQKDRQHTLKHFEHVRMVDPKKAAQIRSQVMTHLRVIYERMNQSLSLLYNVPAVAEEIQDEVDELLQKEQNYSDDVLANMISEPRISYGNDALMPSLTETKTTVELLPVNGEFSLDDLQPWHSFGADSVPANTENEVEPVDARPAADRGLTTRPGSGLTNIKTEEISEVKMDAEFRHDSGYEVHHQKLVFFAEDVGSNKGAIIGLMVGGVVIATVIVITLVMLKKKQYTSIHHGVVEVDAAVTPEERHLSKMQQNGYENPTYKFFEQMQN

Albumin [2] = target: T1, Albumin (Bos taurus, UniProt P02769); test: Binding affinity to bovine serum albumin at 2 uM by circular dichroism spectroscopic analysis relative to control relative to control; conditions: cattle
T1 sequence (P02769 whole entry): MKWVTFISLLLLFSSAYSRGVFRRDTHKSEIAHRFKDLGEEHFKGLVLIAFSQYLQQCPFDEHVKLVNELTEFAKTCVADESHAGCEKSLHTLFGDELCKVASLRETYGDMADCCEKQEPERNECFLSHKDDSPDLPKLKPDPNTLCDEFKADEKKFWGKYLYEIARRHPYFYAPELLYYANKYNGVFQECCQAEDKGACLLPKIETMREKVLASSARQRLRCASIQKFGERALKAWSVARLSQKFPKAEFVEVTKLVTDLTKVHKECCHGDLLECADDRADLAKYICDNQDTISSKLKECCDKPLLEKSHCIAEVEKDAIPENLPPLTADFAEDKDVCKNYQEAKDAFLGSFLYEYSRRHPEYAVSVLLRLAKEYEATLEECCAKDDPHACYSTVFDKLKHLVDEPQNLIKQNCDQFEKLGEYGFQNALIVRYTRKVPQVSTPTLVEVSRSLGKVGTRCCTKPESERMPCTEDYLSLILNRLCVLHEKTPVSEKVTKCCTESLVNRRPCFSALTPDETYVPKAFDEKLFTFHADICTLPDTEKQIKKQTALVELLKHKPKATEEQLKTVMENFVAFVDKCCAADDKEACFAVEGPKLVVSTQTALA

Albumin [3] = target: T1, Albumin; test: Binding affinity to bovine serum albumin at 2 uM by circular dichroism spectroscopic analysis; conditions: cattle, TDE = time-dependent effect
[4] = target: Amyloid-beta precursor protein (Homo sapiens) (UniProt P05067); test: Binding affinity to ordered beta sheet of amyloid beta (1 to 42) (unknown origin) by circular dichroism spectroscopic analysis
Albumin [5] = target: T1, Albumin; test: Binding affinity to beta-sheet rich bovine serum albumin at 2 uM by circular dichroism spectroscopic analysis; conditions: cattle, TDE = time-dependent effect
Albumin [6] = target: T1, Albumin; test: Binding affinity to bovine serum albumin at 2 uM by circular dichroism spectroscopic analysis relative to control; conditions: cattle
[7] = target: Amyloid-beta precursor protein (Homo sapiens) (UniProt P05067); test: Binding affinity to unordered beta sheet of amyloid beta (1 to 42) (unknown origin) by circular dichroism spectroscopic analysis
[8] = target: Amyloid-beta precursor protein (Homo sapiens) (UniProt P05067); test: Binding affinity to ordered beta sheet of amyloid beta (1 to 42) (unknown origin) assessed as fluorescence enhancement at 0.5 uM by fluorescence spectra analysis relative to control

fold change (FC) [1]: 6
fold change (FC) (Albumin [2]): 340
Activity (Albumin [3]): tde
Activity [4]: Active
Activity (Albumin [5]): tde
fold change (FC) (Albumin [6]): 57
Activity [7]: Active
fold change (FC) [8]: 16
Structure (SMILES): F[B-]1(F)n2c(-c3ccccc3)cc(-c3ccccc3)c2N=C2C(c3ccccc3)=CC(c3ccccc3)=[N+]21
